Source: patent US9458428B2, “Methods and compositions for the rapid production of retinal pigmented epithelial cells from pluripotent cells” (The Regents of the University of California, priority 2012, dated 2016)
Ends that are not written are not given here.

B1: Activin A: Recombinant Activin A, media additive (protein, UniProt P08476 311-426, looked up)
Inhibin beta A chain: GLECDGKVNICCKKQFFVSFKDIGWNDWIIAPSGYHANYCEGECPSHIAGTSGSSLSFHSTVINHYRMRGHSPFANLKSCCVPTKLRPMSMLYYDDGQNIIKKDIQNMIVEECGCS

Key:
pluripotent stem cells [1] = experiment: qPCR gene expression, early eye field differentiation, day 4; assay type: cell-based, human; details: for expression of early neural/early eye field marker Lhx2 / expression of early neural/early eye field marker Rax / expression of the pluripotency genes Oct4 and Nanog: day 4, added to IGF1, Noggin, Dkk1 and bFGF, compared with controls; for expression of the pluripotency genes Oct4 and Nanog: 10 mM nicotinamide or 5 mM 3-aminobenzamide
Procedure: (§1) Pluripotent stem cells were passaged directly onto Matrigel (BD Biosciences) in DMEM/F12 with 1×B27, 1×N2, and 1×NEAA (Invitrogen). From days 0 to 2, 50 ng/ml Noggin, 10 ng/ml Dkk1, and 10 ng/ml IGF1 (R&D Systems Inc., Minneapolis, Minn., http://www.rndsystems.com) and in some experiments 10 mM nicotinamide or 5 mM 3-aminobenzamide (Sigma-Aldrich) were added to the base medium. From days 2 to 4, 10 ng/ml Noggin, 10 ng/ml Dkk1, 10 ng/ml IGF1, and 5 ng/ml bFGF and in some experiments 10 mM nicotinamide or 5 mM 3-aminobenzamide were added to the base medium. From days 4 to 6, 10 ng/ml Dkk1 and 10 ng/ml IGF1 and in some experiments 100 ng/ml Activin A (R&D Systems) were added to the base medium. From days 6 to 14, 100 ng/ml Activin A, 10 μM SU5402 (EMD Millipore, Darmstadt, Germany, http://www.emdmillipore.com), and […] VIP (Sigma-Aldrich) were added to the base medium. Control experiments were also performed in base media alone (DMEM/F12, B27, N2, and NEAA).
(§2) Quantitative Real-Time Polymerase Chain Reaction Total RNA of RPE marker genes was isolated using primers based upon the mRNA sequences of such genes. QPCR methods were carried out with the RNeasy Plus Mini Kit (Qiagen, Hilden, Germany, http://www.qiagen.com). cDNA was synthesized from 1 μg of RNA using the iScript cDNA Synthesis Kit (Bio-Rad, Hercules, Calif., http://www.bio-rad.com). Primer pairs were designed to create a 75-200-base pair product (Beacon Design 4.0; Premier Biosoft International, Palo Alto, Calif., http://www.premierbiosoft.com). Quantitative real-time polymerase chain reaction (PCR) was carried out on a Bio-Rad MyIQ Single Color Real-Time PCR Detection System using the SYBR Green method, as described in Woo T H, Patel B K, Cinco M et al. Identification of Leptospira biflexa by real-time homogeneous detection of rapid cycle PCR product. J Microbiol Methods 1999; 35:23-30. Triplicate 20-μl reactions were run in a 96-well plate with half of the cDNA synthesis reaction used per plate. Primer specificity was confirmed by melting temperature analysis, gel electrophoresis, and direct sequencing (Iowa State DNA Facility, Ames, Iowa). The data were normalized to the geometric mean of the “housekeeping” genes: glyceraldehyde phosphate dehydrogenase (GAPDH), hydroxymethylbilane synthase (HMBS), and glucose phosphate isomerase (GPI), as described in Radeke M J, Peterson K E, Johnson L V et al. Disease susceptibility of the human macula: Differential gene transcription in the retinal pigmented epithelium/choroid. Exp Eye Res 2007; 85:366-380.

early eye field cells [2] = experiment: qPCR gene expression, RPE specification of early eye field cells, day 10; assay type: cell-based, human; details: for gene expression of Mitf / expression of Rax: day 10; for gene expression of Mitf: Activin A added days 4-10, SU5402 or VIP days 6-10
Procedure: as §1, §2

dissociated RPE = experiment: Rescue of RPE after single-cell dissociation on day 14; assay type: cell-based, human; details: 10 μM for the first 3 days after passage
Procedure: The cells were mechanically enriched by scraping away cells with non-RPE morphology. Subsequently, the remaining RPE were digested using TrypLE Express (Invitrogen) for ˜5 minutes at 37° C. The cells were passed through a 30-μm single-cell strainer and seeded onto Matrigel-coated tissue culture plastic, Transwell membranes (Corning Enterprises, Corning, N.Y., http://www.corning.com), or CC2-treated chambered slides. Enriched cells were cultured in DMEM-high glucose with 1% fetal bovine serum (FBS), GlutaMAX, and sodium pyruvate (Invitrogen) for 30 days, as described in Ahmado A, Carr A J, Vugler A A et al. Induction of differentiation by pyruvate and DMEM in the human retinal pigment epithelium cell line ARPE-19. Invest Ophthalmol Vis Sci 2011; 52:7148-7159.
Differentiated Cells Can Be Enriched on Day 14 to Homogenous Cultures of Functional RPE. To generate more homogenous populations of RPE, readily visible sheets on day 14 were mechanically isolated, dissociated into single cells, and replated in an RPE medium described in Buchholz D E, Hikita S T, Rowland T J et al. Derivation of functional retinal pigmented epithelium from induced pluripotent stem cells. STEM CELLS 2009; 27:2427-2434, on Matrigel-coated tissue culture plastic, chambered slides, or Transwell inserts. […]

[3] = target: cAMP-dependent protein kinase; details: cited from earlier work
PKC = details: cited from earlier work
[4] = target: myosin light-chain kinase; details: cited from earlier work
pluripotent stem cells [5] = experiment: Cell morphology during early eye field differentiation; assay type: cell-based, human; details: compared with control cells
Procedure: as §1

early eye field cells [6] = experiment: Pigmentation of differentiating cultures; assay type: cell-based, human; details: cultures containing VIP, between days 10 and 14
Procedure: as §1

[7] = Activin A added days 4-10, SU5402 days 6-10

| Molecule | expression of early neural/early eye field marker Lhx2 (pluripotent stem cells [1]) | expression of early neural/early eye field marker Rax (pluripotent stem cells [1]) | expression of the pluripotency genes Oct4 and Nanog (pluripotent stem cells [1]) | gene expression of Mitf (early eye field cells [2]) | expression of Rax (early eye field cells [2]; [7]) | further results |
| --- | --- | --- | --- | --- | --- | --- |
| NC(=O)c1cccc(N)c1 [3-aminobenzamide] | significantly increased | significantly increased | reduced |  |  | ability to recapitulate the effects of nicotinamide (pluripotent stem cells [1]; day 4, overall): partially recapitulate the effects of nicotinamide |
| Cc1c[nH]c(/C=C2\C(=O)Nc3ccccc32)c1CCC(=O)O [SU5402] |  |  |  | little effect | little effect | expression of Rax (early eye field cells [2]; SU5402 in combination with Activin A): further decreased |
| C[C@@H](N)[C@H]1CC[C@H](C(=O)Nc2ccncc2)CC1 [Y-27632] |  |  |  |  |  | RPE survival and maturation after single-cell dissociation (dissociated RPE): […]; Ki [3]: 25 µM; Ki (PKC): […]; Ki [4]: > 250 µM |
| NC(=O)c1cccnc1 [nicotinamide] | increased | the increase in Rax was not significant | significantly decreased |  |  | cell morphology (pluripotent stem cells [5]): rapidly adopted a radial/rosette morphology; Pax6(−5a) expression (pluripotent stem cells [1]; day 4, nicotinamide against control conditions): similar |
| VIP: vasoactive intestinal peptide, a cyclic AMP upregulator (HSDAVFTDNYTRLRKQMAVKKYLNSILN; ends and bridges not checked; UniProt P01282 125-152, looked up) |  |  |  | significantly increased |  | pigmentation (early eye field cells [6]): increased; expression of RPE marker gene PEDF (early eye field cells [2]; VIP added days 6-10): significantly increased; expression of RPE marker gene tyrosinase (early eye field cells [2]; VIP added days 6-10): significantly increased |
| B1 |  |  |  | little effect | significantly decreased |  |
